Measurements as given in ChEMBL document CHEMBL5338745, “Factor XIa Inhibitors in Anticoagulation Therapy: Recent Advances and Perspectives” (J Med Chem, 2023).

Experiments:
[1] = in vivo; details: rat, iv, 0.3 mg/kg
[2] = in vivo; details: rhesus monkey, iv, 3 mg/kg
[3] = target: T1, Coagulation factor XI (Homo sapiens, UniProt P03951); assay: Inhibition of FXIa (unknown origin) relative to control; details: concentration not given here
[4] = system: Plasma; assay: Anticoagulant activity in human plasma assessed as concentration required to 1.5 times activation of partial thromboplastin time; format: functional
[5] = Clearance in rat at 1 mg/kg, iv; format: ADME, organism-based; details: in vivo
[6] = Oral bioavailability in rat at 1.5 mg/kg; format: ADME, organism-based; details: in vivo
[7] = target: T1, Coagulation factor XI; assay: Inhibition of FXIa (unknown origin)
[8] = target: T2, Plasma kallikrein (Homo sapiens, UniProt P03952)
T2 sequence (P03952 20-390 limits assumed): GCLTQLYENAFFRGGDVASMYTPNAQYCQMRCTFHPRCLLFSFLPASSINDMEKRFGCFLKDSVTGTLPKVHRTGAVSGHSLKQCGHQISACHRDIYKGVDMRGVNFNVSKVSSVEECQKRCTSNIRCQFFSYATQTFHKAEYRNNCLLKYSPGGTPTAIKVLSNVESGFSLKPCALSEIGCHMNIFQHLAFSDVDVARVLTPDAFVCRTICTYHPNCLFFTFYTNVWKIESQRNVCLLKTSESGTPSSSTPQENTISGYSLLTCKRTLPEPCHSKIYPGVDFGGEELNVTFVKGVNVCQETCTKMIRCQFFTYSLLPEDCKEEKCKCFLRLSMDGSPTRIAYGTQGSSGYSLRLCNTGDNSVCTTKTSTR
T2 sequence (P03952 391-638 limits assumed): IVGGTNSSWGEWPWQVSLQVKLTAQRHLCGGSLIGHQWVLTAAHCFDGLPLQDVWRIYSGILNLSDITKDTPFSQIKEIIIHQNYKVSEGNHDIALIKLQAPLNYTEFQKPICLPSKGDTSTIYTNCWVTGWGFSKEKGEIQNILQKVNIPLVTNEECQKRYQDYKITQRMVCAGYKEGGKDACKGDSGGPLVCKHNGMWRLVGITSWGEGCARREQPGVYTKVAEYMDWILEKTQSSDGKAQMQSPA

[9] = Half life in rat; format: ADME; details: in vivo
[10] = Clearance in rat; format: ADME; details: in vivo
[11] = Solubility of the compound; format: physicochemical
[12] = Half life in Sprague-Dawley rat at 0.5 mg/kg, iv; format: ADME, organism-based; details: in vivo
[13] = system: Plasma; assay: Anticoagulant activity in human plasma assessed as concentration required to double the activated partial thromboplastin time; format: functional
[14] = Clearance in Sprague-Dawley rat at 0.5 mg/kg, iv; format: ADME, organism-based; details: in vivo
[15] = Oral bioavailability in Sprague-Dawley rat at 3 mg/kg; format: ADME, organism-based; details: in vivo
[16] = Half life in cynomolgus monkey at 1 mg/kg, iv; format: ADME, organism-based, Macaca fascicularis; details: in vivo
[17] = Clearance in cynomolgus monkey at 1 mg/kg, iv; format: ADME, organism-based, Macaca fascicularis; details: in vivo
[18] = Oral bioavailability in cynomolgus monkey at 10 mg/kg, […]; format: ADME, organism-based, Macaca fascicularis; details: in vivo
[19] = Clearance in Sprague-Dawley rat at 1 mg/kg, iv; format: ADME, organism-based; details: in vivo
[20] = target: T1, Coagulation factor XI; assay: Inhibition of human FXIa by absorbance based analysis
[21] = Half life in Sprague-Dawley rat at 1 mg/kg, iv; format: ADME, organism-based; details: in vivo
[22] = Half life in mouse; format: ADME, organism-based; details: in vivo
[23] = Selectivity index, ratio IC50 for FXIa (unknown origin) to IC50 for FD (unknown origin)
[24] = Half life in IG dosed Beagle dog measured upto 24 hrs by LC/MS analysis; format: ADME, organism-based, Canis lupus familiaris; details: in vivo, po
[25] = Oral bioavailability in Beagle dog measured upto 24 hrs by LC/MS analysis; format: ADME, organism-based, Canis lupus familiaris; details: in vivo
[26] = Half life in Sprague-Dawley rat at 5 to 10 mg/kg, po by LC-MS/MS analysis; format: ADME, organism-based; details: in vivo, dose 5-10 mg/kg
[27] = Clearance in Sprague-Dawley rat at 5 to 10 mg/kg, po by LC-MS/MS analysis; format: ADME, organism-based; details: in vivo, dose 5-10 mg/kg
[28] = Oral bioavailability in Sprague-Dawley rat at 5 to 10 mg/kg by LC-MS/MS analysis; format: ADME, organism-based; details: in vivo, dose 5-10 mg/kg
[29] = system: Plasma; assay: Anticoagulant activity in human plasma assessed as concentration required to double the prothrombin time; format: functional
[30] = target: T1, Coagulation factor XI; assay: Binding affinity to FXIa (unknown origin) assessed as inhibition constant
[31] = target: T2, Plasma kallikrein; assay: Binding affinity to PKal (unknown origin) assessed as inhibition constant
[32] = Metabolic stability in dog liver microsomes assessed as half life; format: ADME, Canis lupus familiaris, Microsome
[33] = Plasma protein binding in human at 10 pM incubated for 4 hrs by HPLC-MS/MS analysis; format: ADME, cell-free; details: read-out: PPB
[34] = Oral bioavailability in dog; format: ADME, organism-based, Canis lupus familiaris; details: in vivo
[35] = Half life in Sprague-Dawley rat at 1 mg/kg, iv by LC-MS/MS analysis; format: ADME, organism-based; details: in vivo
[36] = Oral bioavailability in Sprague-Dawley rat at 2 mg/kg by LC-MS/MS analysis; format: ADME, organism-based; details: in vivo
[37] = target: T1, Coagulation factor XI; assay: Inhibition of human FXIa
[38] = target: Prothrombin (Homo sapiens, UniProt P00734); assay: Inhibition of human thrombin
[39] = target: Trypsin (Homo sapiens, UniProt P07477+P07478+P35030); assay: Inhibition of human trypsin; format: protein assay
[40] = Half life in human at 0.6 mg/kg, iv administered for 5 days; format: ADME, organism-based; details: in vivo, time 5 day
[41] = MRT in iv dosed rat measured upto 8 hrs by LC-MS/MS analysis; format: ADME, organism-based; details: in vivo
[42] = Oral bioavailability in Sprague-Dawley rat incubated upto 24 hrs by LC-MS/MS analysis; format: ADME, organism-based; details: in vivo
[43] = Metabolic stability in mouse liver microsomes assessed as half life; format: ADME, Microsome
[44] = target: Complement factor D (Homo sapiens, UniProt P00746); assay: Inhibition of FD (unknown origin)
Sequence of Complement factor D (P00746 whole entry): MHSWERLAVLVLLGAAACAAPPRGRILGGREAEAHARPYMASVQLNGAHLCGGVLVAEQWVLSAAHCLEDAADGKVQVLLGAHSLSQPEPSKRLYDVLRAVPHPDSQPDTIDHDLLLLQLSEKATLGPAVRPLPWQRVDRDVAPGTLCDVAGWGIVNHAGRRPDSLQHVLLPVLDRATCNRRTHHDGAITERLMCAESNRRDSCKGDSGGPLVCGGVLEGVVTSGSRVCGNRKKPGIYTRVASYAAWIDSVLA

[45] = Clearance in mouse; format: ADME, organism-based; details: in vivo
[46] = Oral bioavailability in mouse; format: ADME, organism-based; details: in vivo

T1 sequence (P03951 19-387 limits assumed): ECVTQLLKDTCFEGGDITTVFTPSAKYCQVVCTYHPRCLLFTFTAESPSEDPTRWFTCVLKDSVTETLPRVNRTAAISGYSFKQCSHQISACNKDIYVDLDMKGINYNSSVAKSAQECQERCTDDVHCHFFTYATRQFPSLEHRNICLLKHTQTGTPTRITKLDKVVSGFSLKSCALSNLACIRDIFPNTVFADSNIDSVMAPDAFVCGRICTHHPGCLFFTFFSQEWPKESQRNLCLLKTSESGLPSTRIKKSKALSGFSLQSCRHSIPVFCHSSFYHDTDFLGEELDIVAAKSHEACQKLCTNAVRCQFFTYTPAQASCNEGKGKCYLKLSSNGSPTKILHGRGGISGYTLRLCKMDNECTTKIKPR
T1 sequence (P03951 388-625 limits assumed): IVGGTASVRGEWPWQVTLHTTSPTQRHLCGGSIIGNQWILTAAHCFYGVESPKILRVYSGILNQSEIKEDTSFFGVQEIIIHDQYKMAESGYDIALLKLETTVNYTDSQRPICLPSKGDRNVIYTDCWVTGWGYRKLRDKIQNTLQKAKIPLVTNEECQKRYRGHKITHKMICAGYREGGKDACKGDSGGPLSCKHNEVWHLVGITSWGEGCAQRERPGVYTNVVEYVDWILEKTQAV

## CC[C@@H](C(=O)Nc1ccc(C(N)=O)c(F)c1)n1cc(OC)c(-c2cc(Cl)ccc2-n2cc(Cl)nn2)cc1=O
[1]
  clearance: 13.3 mL/min/kg
[2]
  clearance: 5.5 mL/min/kg

## Cc1ccc(C(=O)Nc2ccc(CP(=O)(O)O)cc2CP(=O)(O)O)cc1NC(=O)c1cccc(NC(=O)Nc2cccc(C(=O)Nc3cc(C(=O)Nc4ccc(CP(=O)(O)O)cc4CP(=O)(O)O)ccc3C)c2)c1
[3]
  inhibition: 68%

## O=C(O)c1ccc(NC(=O)[C@H](CC2CC2)c2ccc(-c3c(C(F)F)ccc(Cl)c3F)c[n+]2[O-])cc1 (mixture of isomers)
[4]
  EC: 0.61 µM
[5]
  clearance: 1.9 mL/min/kg
[6]
  bioavailability: 89%

## CC[C@@H](C(=O)Nc1ccc(C(N)=O)c(F)c1)n1cc(OC)c(-c2cc(Cl)ccc2-n2cc(C(F)(F)F)nn2)cc1=O
[1]
  clearance: 13.8 mL/min/kg
[2]
  clearance: 2 mL/min/kg

## O=C(/C=C/c1cc(Cl)ccc1-n1cnnn1)N[C@@H](CC(=O)N1CCN(c2ccccc2)CC1)C(=O)Nc1ccc(C(=O)O)cc1
[7]
  IC50: 7.1 nM
[8]
  IC50: > 14000 nM
[9]
  half-life: 1.26 h
[10]
  clearance: 9.2 mL/min/kg
[11]
  solubility: > 5200 µg/mL

## C[C@@H]1CCC[C@H](c2ccc(-c3cc(Cl)ccc3-n3cc(Cl)nn3)oc2=O)c2cc(ccn2)-c2c(cnn2C(F)F)NC1=O
[7]
  IC50: 3.9 nM
[12]
  half-life: 1 h
[13]
  EC: 0.87 µM
[14]
  clearance: 5.65 mL/min/kg
[15]
  bioavailability: 37.1%

## [2H]C([2H])([2H])n1ncc2c1-c1ccnc(c1)[C@@H](c1coc(-c3cc(Cl)ccc3-n3cc(Cl)nn3)cc1=O)CCC[C@@H](C)C(=O)N2
[7]
  IC50: 6.1 nM
[13]
  EC: 2.7 µM
[16]
  half-life: 1.05 h
[17]
  clearance: 8.6 mL/min/kg
[18]
  bioavailability: 36.8%

## CC[C@@H](NC(=O)N1C(=O)[C@H](Cc2ccnc(N)c2)[C@H]1C(=O)O)c1ccccc1
[7]
  IC50: < 10 nM

## O=C(O)c1ccc(NC(=O)[C@H](Cc2ccccc2)N2CCC(c3cc(Cl)ccc3-n3cc(Cl)nn3)=CC2=O)cc1
[7]
  IC50: 1.73 nM

## O=C(O)c1cc2cc(NC(=O)[C@H](Cc3ccc(N4CCN(C5CCC(O)CC5)CC4=O)cc3)N3CCN(c4cc(Cl)ccc4-n4cnnn4)C(=O)C3=O)ccc2[nH]1 (some centres not stated)
[19]
  clearance: 33.3 mL/min/kg
[13]
  EC: 1.1 µM
[20]
  IC50: 1.75 nM
[21]
  half-life: 0.46 h

## CC(C)c1cc(CCN2CCc3cccc(C(=O)O)c32)cc(-c2ccc3c(c2)[C@H](N)CO3)c1
[22]
  half-life: 9 h
[23]
  Ratio IC50: 700

## C[C@H]1COc2cn([C@@H](CC3CCCCO3)C(=O)Nc3ccc(C(N)=O)cc3)c(=O)cc2-c2c(ccc(Cl)c2F)C1 (some centres not stated)
[7]
  IC50: 1.7 nM
[8]
  IC50: 60 nM

## O=C(OC[C@H]1O[C@@H](OC(=O)c2cc(OS(=O)(=O)O)cc(OS(=O)(=O)O)c2)[C@H](OC(=O)c2cc(OS(=O)(=O)O)cc(OS(=O)(=O)O)c2)[C@@H](OC(=O)c2cc(OS(=O)(=O)O)cc(OS(=O)(=O)O)c2)[C@@H]1OC(=O)c1cc(OS(=O)(=O)O)cc(OS(=O)(=O)O)c1)c1cc(OS(=O)(=O)O)cc(OS(=O)(=O)O)c1
[7]
  IC50: 1400 nM

## O=C(O)c1ccc(NC(=O)[C@H](Cc2ccccc2)n2cnc(-c3cc(Cl)ccc3-n3cc(Cl)nn3)cc2=O)cc1
[7]
  IC50: 2.5 nM
[8]
  IC50: 189 nM

## COc1nn([C@@H](Cc2ccccc2)C(=O)Nc2ccc(C(=O)O)cc2)c(=O)cc1-c1cc(Cl)ccc1C(C)=O
[8]
  Ki: 103 nM
[20]
  Ki: 1.6 nM
[24]
  half-life: 4.5 h
[25]
  bioavailability: 49.6%

## O=c1cc(-c2c(-n3cnnn3)ccc(Cl)c2F)cc2n1[C@H](c1ccc(-c3ccnc(CO)c3F)[nH]1)CC2
[7]
  IC50: 1.8 nM
[8]
  IC50: 13 nM
[26]
  half-life: 3.25 h
[27]
  CL/F: 19.6 mL/min/kg
[28]
  bioavailability: 53.4%

## CC(C)c1cc(COc2ccccc2CC(=O)O)cc(-c2ccc3c(c2)[C@H](N)CO3)c1
[13]
  EC: 2.2 µM
[29]
  EC: 9.9 µM

## COC(=O)NCC[C@@H]1Cc2cccc(c2)[C@@H](n2cnc(-c3cc(Cl)ccc3-n3cc(C(F)(F)F)cn3)cc2=O)CCC[C@@H](C)C(=O)N1
[30]
  Ki: 5 nM
[31]
  Ki: 1790 nM

## Nc1ccc(-c2nc([C@H]3CCc4cc(-c5cc(Cl)ccc5-n5cnnn5)cc(=O)n43)c(F)[nH]2)c(F)n1 [ONO-7684]
[7]
  Ki: 2 nM

## CC[C@@H](NC(=O)N1C(=O)[C@H](Cc2ccnc(N)c2)[C@H]1C(=O)N(C)c1nccn1C)c1ccccc1
[7]
  IC50: < 10 nM
[32]
  half-life: 2.02 h
[33]
  fraction unbound at 4 h, 1e-05 µM: 0.5
[34]
  bioavailability: > 33%

## Nc1ccc(-c2nc(F)c([C@@H]3[C@H]4C[C@H]4c4cc(-c5cc(Cl)ccc5-n5cnnn5)cc(=O)n43)[nH]2)c(F)n1
[7]
  IC50: 3.3 nM
[35]
  half-life: 1.6 h
[36]
  bioavailability: 25.3%

## Nc1ccc(-c2cnc([C@H](CC3CC3)c3ccc(-c4cc(Cl)ccc4-n4cnnn4)c[n+]3[O-])[nH]2)c(Cl)n1
[7]
  IC50: 0.32 nM
[8]
  IC50: 80 nM

## C[C@@H](NC(=O)N1C(=O)[C@H](Cc2ccnc(N)c2)[C@H]1C(=O)O)C1CCCCC1 [FRUNEXIAN]
[37]
  IC50: 7.1 nM
[38]
  IC50: > 20000 nM
[39]
  IC50: > 4800 nM
[40]
  half-life: 0.75 h

## Nc1ccc(-c2[nH]c(Cn3c4c(c(-c5cc(Cl)ccc5-n5cnnn5)cc3=O)C(=O)CC4)nc2F)c(F)n1
[7]
  IC50: 0.32 nM

## COC(=O)Nc1ccc2c(c1)NC(=O)[C@H](C)CCC[C@H](c1ccc(-c3cc(Cl)ccc3-n3cc(C(F)(F)F)cn3)c[n+]1[O-])c1nc-2c(C)[nH]1
[41]
  MRT: 11 h
[7]
  IC50: 0.9 nM
[8]
  IC50: 42 nM

## C[C@@H]1CCC[C@H](n2cnc(-c3cc(Cl)ccc3-n3cc(Cl)nn3)cc2=O)c2cc(ccn2)-c2c(cnn2C(F)F)NC1=O [MILVEXIAN]
[4]
  EC: 0.5 µM

## O=C(O)c1cc2cc(NC(=O)[C@@H]3CCc4cc(-c5cc(Cl)ccc5-n5cnnn5)cc(=O)n43)ccc2[nH]1
[7]
  IC50: 6.4 nM

## O=C(O)c1ccc(NC(=O)[C@H](CC2=CC=CCC2)n2ccc(-c3cc(Cl)ccc3-n3cnnn3)cc2=O)cc1
[7]
  Ki: 6 nM

## COCC[C@@H](C(=O)Nc1ccc2nn(C)cc2c1)N1CC(=O)N(c2cc(Cl)ccc2-n2cc(Cl)nn2)CC1=O
[13]
  EC: 5.3 µM
[21]
  half-life: 1.5 h
[42]
  bioavailability: 72.5%
[43]
  half-life: > 5 h
[32]
  half-life: > 15 h

## COc1cn(C(Cc2ccccc2)c2nc3cc(C(=O)O)ccc3[nH]2)c(=O)cc1-c1cc(Cl)ccc1-n1cnnn1 (configuration not stated)
[7]
  IC50: 3 nM

## C[C@@H]1CCC[C@H](n2cnc(-c3cc(Cl)ccc3-n3cnnn3)cc2=O)c2cc(c3c(n2)OCCO3)-c2c(cnn2C)NC1=O
[7]
  IC50: 10.4 nM

## Nc1ccc(-c2cnc(Cn3c4c(c(-c5cc(Cl)ccc5-n5cnnn5)cc3=O)OCC4)[nH]2)c(F)n1
[7]
  IC50: 1.6 nM

## CC(C)c1cc(-c2ccc3c(c2)[C@H](N)CO3)cc([C@@H](O)CN2CCc3cccc(C(=O)O)c32)c1
[7]
  IC50: 0.4 nM
[8]
  IC50: 1 nM
[13]
  EC: 1.3 µM
[44]
  IC50: > 5000 nM
[22]
  half-life: 3.73 h
[45]
  clearance: 11 mL/min/kg
[46]
  bioavailability: 100%
[23]
  Ratio IC50: 10000
[29]
  EC: 28.7 µM
